# Measurements published in ChEMBL document CHEMBL1212765, “An A643T mutation in the transcription factor Upc2p causes constitutive ERG11 upregulation and increased fluconazole resistance in Candida albicans” (2010).
# The source made the active and inactive calls. No cut-off for these calls is given here.
# Columns and labels:
# Candida albicans [1] = assay: Antimicrobial activity against fluconazole resistant Candida albicans isolate 2440 expressing high levels of ERG11 and UPC2 mRNA by microdilution method; type: functional
# Candida albicans [2] = assay: Antimicrobial activity against Candida albicans isolate SC5314 expressing UPC2/UPC2 G648D mutant allele by microdilution method relative wild type; type: functional
# Candida albicans [3] = assay: Antimicrobial activity against fluconazole susceptible Candida albicans isolate 1002 expressing low levels of ERG11 and UPC2 mRNA by microdilution method; type: functional
# Candida albicans [4] = assay: Antimicrobial activity against fluconazole resistant Candida albicans isolate 1619 expressing high levels of ERG11 and UPC2 mRNA by microdilution method; type: functional
# Candida albicans [5] = assay: Antimicrobial activity against fluconazole susceptible Candida albicans isolate 945 expressing low levels of ERG11 and UPC2 mRNA by microdilution method; type: functional
# Candida albicans [6] = assay: Antimicrobial activity against fluconazole susceptible Candida albicans isolate 5052 expressing low levels of ERG11 and UPC2 mRNA by microdilution method; type: functional
# Candida albicans [7] = assay: Antimicrobial activity against fluconazole susceptible Candida albicans 5054 expressing low levels of ERG11 and UPC2 mRNA by microdilution method; type: functional
# Candida albicans [8] = assay: Antimicrobial activity against fluconazole resistant Candida albicans isolate 3795 expressing high levels of ERG11 and UPC2 mRNA by microdilution method; type: functional
# Candida albicans [9] = assay: Antimicrobial activity against Candida albicans isolate SC5314 expressing UPC2 G648D/UPC2 G648D double mutant alleles by microdilution method relative wild type; type: functional
# Candida albicans [10] = assay: Antimicrobial activity against fluconazole susceptible Candida albicans isolate 580 expressing low levels of ERG11 and UPC2 mRNA by microdilution method; type: functional
# Candida albicans [11] = assay: Antimicrobial activity against Candida albicans isolate SC5314 expressing UPC2/UPC2 A643T mutant allele by microdilution method relative wild type; type: functional, organism-based
# Candida albicans [12] = assay: Antimicrobial activity against Candida albicans isolate SC5314 expressing UPC2 G648D/UPC2 A643T double mutant alleles by microdilution method relative wild type; type: functional, organism-based
smiles,measurement,setting,value
OC(Cn1cncn1)(Cn1cncn1)c1ccc(F)cc1F [FLUCONAZOLE],MIC,Candida albicans [1],32 µg/mL
same,Ratio,Candida albicans [2],4
same,MIC,Candida albicans [3],0.25 µg/mL
same,MIC,Candida albicans [4],32 µg/mL
same,MIC,Candida albicans [5],4 µg/mL
same,MIC,Candida albicans [6],32 µg/mL
same,MIC,Candida albicans [7],4 µg/mL
same,MIC,Candida albicans [8],> 64 µg/mL
same,Ratio,Candida albicans [9],8
same,MIC,Candida albicans [10],1 µg/mL
same,MIC,Candida albicans [11],inactive
same,MIC,Candida albicans [12],inactive
